According to patent publication US20260174875A1 (Novo Nordisk A/S, priority 2023, published 2026):

Assay: Chemical stability assessment in formulation (UPLC-UV-MS purity loss at 37° C.)
Format: physicochemical
Details: 8 mM phosphate buffer pH 7.4, 1 mg/mL, 2 weeks
Description: The assay was performed to investigate the extend of chemical degradation in vitro over time upon incubation at 37° C. for a period of 2 weeks.
Peptide solutions were prepared by dissolving freeze-dried powder in 8 mM phosphate buffer pH 7.4 to a target of 1 mg/mL. The pH of peptide solutions was adjusted to 7.4 with 0.02 M HCl or 0.02 M NaOH. Samples were filled in Agilent HPLC vials with fixed insert. Vials were capped to prevent evaporation. The HPLC vials were incubated at 37° C. and samples were withdrawn at different time points over a period of 2 weeks, flash frozen at −80° C., and stored at −20° C. until analysis.
A flow-rate of 100 μL/min was delivered with a Binary solvent manager pump having 0.1% formic acid in water as solvent A and 0.1% formic acid in acetonitrile as solvent B. Gradient elution was carried out using 20% B from 0 to 2 min followed by 20 to 50% B from 2 to 20 min in a total run time of 30 min.

| Purity loss per week at 37° C. [%] | SMILES |
| --- | --- |
| 1.0 | CC[C@H](C)[C@H](NC(=O)[C@H](CCC(=O)O)NC(=O)[C@H](CCC(=O)O)NC(=O)[C@H](CC(C)C)NC(=O)[C@H](CC(C)C)NC(=O)[C@H](CCCCNC(=O)COCCOCCNC(=O)COCCOCCNC(=O)CC[C@H](NC(=O)CCCCCCCCCCCCCCCCCCC(=O)O)C(=O)O)NC(=O)[C@H](CO)NC(=O)[C@H](Cc1ccc(O)cc1)NC(=O)[C@H](CC(=O)O)NC(=O)[C@H](CO)NC(=O)[C@@H](NC(=O)[C@H](Cc1ccccc1)NC(=O)[C@@H](NC(=O)CNC(=O)[C@H](CCC(=O)O)NC(=O)C(C)(C)NC(=O)[C@@H](N)Cc1ccc(O)cc1)[C@@H](C)O)[C@@H](C)O)C(=O)N[C@@H](C)C(=O)N[C@@H](C)C(=O)N[C@@H](CCCNC(=N)N)C(=O)N[C@@H](CCC(=O)O)C(=O)N[C@@H](Cc1ccccc1)C(=O)N[C@H](C(=O)N[C@@H](CCC(=O)O)C(=O)N[C@@H](Cc1c[nH]c2ccccc12)C(=O)N[C@@H](CC(C)C)C(=O)N[C@@H](CC(C)C)C(=O)N[C@@H](C)C(=O)NCC(=O)NCC(=O)N1CCC[C@H]1C(=O)N[C@@H](CO)C(=O)N[C@@H](CO)C(=O)NCC(=O)N[C@@H](C)C(=O)NCC(=O)N[C@@H](C)C(=O)N[C@@H](CO)C(=O)N[C@@H](CCC(=O)O)C(=O)N[C@@H](CC(C)C)C(=O)N[C@@H](CO)C(=O)N[C@H](C(=O)N[C@@H](C)C(=O)N[C@@H](CCC(N)=O)C(=O)N[C@@H](CC(C)C)C(=O)NCC(=O)N[C@@H](CCCNC(=N)N)C(=O)N[C@@H](CC(C)C)C(=O)N[C@@H](CO)C(=O)N[C@@H](C)C(=O)N[C@@H](CCC(=O)O)C(=O)N[C@@H](CC(C)C)C(=O)N[C@@H](Cc1c[nH]cn1)C(=O)N[C@@H](CCC(N)=O)C(=O)N[C@@H](CC(C)C)C(=O)N[C@@H](C)C(=O)N[C@H](C(=O)N[C@@H](CCC(=O)O)C(=O)N1CCC[C@H]1C(=O)N[C@@H](CCCNC(=N)N)C(=O)N[C@H](C(=O)N[C@@H](CCC(=O)O)C(=O)N[C@H](C(=O)NCC(=O)N[C@@H](CO)C(=O)NCC(=O)N[C@@H](CO)C(=O)N1CCC[C@H]1C(N)=O)[C@@H](C)O)[C@@H](C)O)[C@@H](C)O)[C@@H](C)O)[C@@H](C)CC [Compound 186] |
| 1.0 | CC[C@H](C)[C@H](NC(=O)[C@H](CCC(=O)O)NC(=O)[C@H](CCC(=O)O)NC(=O)[C@H](CC(C)C)NC(=O)[C@H](CC(C)C)NC(=O)[C@H](CCCCNC(=O)COCCOCCNC(=O)COCCOCCNC(=O)CC[C@H](NC(=O)CCCCCCCCCCCCCCCCCCC(=O)O)C(=O)O)NC(=O)[C@H](CO)NC(=O)[C@H](Cc1ccc(O)cc1)NC(=O)[C@H](CC(=O)O)NC(=O)[C@H](CO)NC(=O)[C@@H](NC(=O)[C@H](Cc1ccccc1)NC(=O)[C@@H](NC(=O)CNC(=O)[C@H](CCC(=O)O)NC(=O)C(C)(C)NC(=O)[C@@H](N)Cc1ccc(O)cc1)[C@@H](C)O)[C@@H](C)O)C(=O)N[C@@H](C)C(=O)N[C@@H](C)C(=O)N[C@@H](CCCNC(=N)N)C(=O)N[C@@H](CCC(=O)O)C(=O)N[C@@H](Cc1ccccc1)C(=O)N[C@H](C(=O)N[C@@H](CCC(=O)O)C(=O)N[C@@H](Cc1c[nH]c2ccccc12)C(=O)N[C@@H](CC(C)C)C(=O)N[C@@H](CC(C)C)C(=O)N[C@@H](C)C(=O)NCC(=O)NCC(=O)N1CCC[C@H]1C(=O)N[C@@H](CO)C(=O)N[C@@H](CO)C(=O)NCC(=O)N[C@@H](C)C(=O)NCC(=O)N[C@@H](C)C(=O)N[C@@H](CO)C(=O)N[C@@H](Cc1c[nH]cn1)C(=O)N[C@@H](CC(C)C)C(=O)N[C@@H](CO)C(=O)N[C@H](C(=O)N[C@@H](C)C(=O)N[C@@H](CCC(N)=O)C(=O)N[C@@H](CC(C)C)C(=O)NCC(=O)N[C@@H](CCCNC(=N)N)C(=O)N[C@@H](CC(C)C)C(=O)N[C@@H](CO)C(=O)N[C@@H](C)C(=O)N[C@@H](CCC(=O)O)C(=O)N[C@@H](CC(C)C)C(=O)N[C@@H](Cc1c[nH]cn1)C(=O)N[C@@H](CCC(N)=O)C(=O)N[C@@H](CC(C)C)C(=O)N[C@@H](C)C(=O)N[C@H](C(=O)N[C@@H](CCC(=O)O)C(=O)N1CCC[C@H]1C(=O)N[C@@H](CCCNC(=N)N)C(=O)N[C@H](C(=O)N[C@@H](CCC(=O)O)C(=O)N[C@H](C(=O)NCC(=O)N[C@@H](CO)C(=O)NCC(=O)N[C@@H](CO)C(=O)N1CCC[C@H]1C(N)=O)[C@@H](C)O)[C@@H](C)O)[C@@H](C)O)[C@@H](C)O)[C@@H](C)CC [Compound 184] |
| 1.0 | CC[C@H](C)[C@H](NC(=O)[C@H](CCC(=O)O)NC(=O)[C@H](CCC(=O)O)NC(=O)[C@H](CC(C)C)NC(=O)[C@H](CC(C)C)NC(=O)[C@@H](NC(=O)[C@H](CO)NC(=O)[C@H](Cc1ccc(O)cc1)NC(=O)[C@H](CC(=O)O)NC(=O)[C@H](CO)NC(=O)[C@@H](NC(=O)[C@H](Cc1ccccc1)NC(=O)[C@@H](NC(=O)CNC(=O)[C@H](CCC(=O)O)NC(=O)C(C)(C)NC(=O)[C@@H](N)Cc1ccc(O)cc1)[C@@H](C)O)[C@@H](C)O)[C@@H](C)CC)C(=O)N[C@@H](C)C(=O)N[C@@H](C)C(=O)N[C@@H](CCCNC(=N)N)C(=O)N[C@@H](CCC(=O)O)C(=O)N[C@@H](Cc1ccccc1)C(=O)N[C@H](C(=O)N[C@@H](CCC(=O)O)C(=O)N[C@@H](Cc1c[nH]c2ccccc12)C(=O)N[C@@H](CC(C)C)C(=O)N[C@@H](CC(C)C)C(=O)N[C@@H](C)C(=O)NCC(=O)NCC(=O)N1CCC[C@H]1C(=O)N[C@@H](CO)C(=O)N[C@@H](CO)C(=O)NCC(=O)N[C@@H](C)C(=O)NCC(=O)N[C@@H](CCC(N)=O)C(=O)N[C@@H](C)C(=O)N1CCC[C@H]1C(=O)NCC(=O)N[C@@H](CCC(N)=O)C(=O)N[C@@H](C)C(=O)N1CCC[C@H]1C(=O)NCC(=O)N[C@@H](C)C(=O)N[C@@H](CO)C(=O)N[C@@H](Cc1c[nH]cn1)C(=O)N[C@@H](CC(C)C)C(=O)N[C@@H](CO)C(=O)N[C@H](C(=O)N[C@@H](C)C(=O)N[C@@H](CCC(N)=O)C(=O)N[C@H](C(=O)N[C@@H](CCC(N)=O)C(=O)N[C@@H](CCCNC(=N)N)C(=O)N[C@@H](CC(C)C)C(=O)N[C@@H](CO)C(=O)N[C@@H](C)C(=O)N[C@@H](CCC(=O)O)C(=O)N[C@@H](CC(C)C)C(=O)N[C@@H](Cc1c[nH]cn1)C(=O)N[C@@H](CCCCNC(=O)COCCOCCNC(=O)COCCOCCNC(=O)CC[C@H](NC(=O)CCCCCCCCCCCCCCCCCCC(=O)O)C(=O)O)C(=O)N[C@@H](CC(C)C)C(=O)N[C@@H](C)C(=O)N[C@H](C(=O)N[C@@H](CCC(=O)O)C(=O)N1CCC[C@H]1C(=O)N[C@@H](CCCNC(=N)N)C(=O)N[C@H](C(=O)N[C@@H](CCC(=O)O)C(=O)N[C@H](C(=O)NCC(=O)N[C@@H](CO)C(=O)NCC(=O)N[C@@H](CO)C(=O)N1CCC[C@H]1C(N)=O)[C@@H](C)O)[C@@H](C)O)[C@@H](C)O)[C@@H](C)O)[C@@H](C)O)[C@@H](C)CC [Compound 162] |
| 1.0 | CC[C@H](C)[C@H](NC(=O)[C@H](CCC(=O)O)NC(=O)[C@H](CCC(=O)O)NC(=O)[C@H](CC(C)C)NC(=O)[C@H](CC(C)C)NC(=O)[C@H](CCCCNC(=O)COCCOCCNC(=O)COCCOCCNC(=O)CC[C@H](NC(=O)CCCCCCCCCCCCCCCCCCC(=O)O)C(=O)O)NC(=O)[C@H](CO)NC(=O)[C@H](Cc1ccc(O)cc1)NC(=O)[C@H](CC(=O)O)NC(=O)[C@H](CO)NC(=O)[C@@H](NC(=O)[C@H](Cc1ccccc1)NC(=O)[C@@H](NC(=O)CNC(=O)[C@H](CCC(=O)O)NC(=O)C(C)(C)NC(=O)[C@@H](N)Cc1ccc(O)cc1)[C@@H](C)O)[C@@H](C)O)C(=O)N[C@@H](C)C(=O)N[C@@H](C)C(=O)N[C@@H](CCCNC(=N)N)C(=O)N[C@@H](CCC(=O)O)C(=O)N[C@@H](Cc1ccccc1)C(=O)N[C@H](C(=O)N[C@@H](CCC(=O)O)C(=O)N[C@@H](Cc1c[nH]c2ccccc12)C(=O)N[C@@H](CC(C)C)C(=O)N[C@@H](CC(C)C)C(=O)N[C@@H](C)C(=O)NCC(=O)NCC(=O)N1CCC[C@H]1C(=O)N[C@@H](CO)C(=O)N[C@@H](CO)C(=O)NCC(=O)N[C@@H](C)C(=O)NCC(=O)N[C@@H](CCC(N)=O)C(=O)N[C@@H](C)C(=O)N1CCC[C@H]1C(=O)NCC(=O)N[C@@H](CCC(N)=O)C(=O)N[C@@H](C)C(=O)N1CCC[C@H]1C(=O)NCC(=O)N[C@@H](C)C(=O)N[C@@H](CO)C(=O)N[C@@H](Cc1c[nH]cn1)C(=O)N[C@@H](CC(C)C)C(=O)N[C@@H](CO)C(=O)N[C@H](C(=O)N[C@@H](C)C(=O)N[C@@H](CCC(N)=O)C(=O)N[C@@H](CC(C)C)C(=O)NCC(=O)N[C@@H](CCCNC(=N)N)C(=O)N[C@@H](CC(C)C)C(=O)N[C@@H](CO)C(=O)N[C@@H](C)C(=O)N[C@@H](CCC(=O)O)C(=O)N[C@@H](CC(C)C)C(=O)N[C@@H](Cc1c[nH]cn1)C(=O)N[C@@H](CCC(N)=O)C(=O)N[C@@H](CC(C)C)C(=O)N[C@@H](C)C(=O)N[C@H](C(=O)N[C@@H](CC(C)C)C(=O)N1CCC[C@H]1C(=O)N[C@@H](CCCNC(=N)N)C(=O)N[C@H](C(=O)N[C@@H](CCC(=O)O)C(=O)N[C@H](C(=O)NCC(=O)N[C@@H](CO)C(=O)NCC(=O)N[C@@H](CO)C(=O)N1CCC[C@H]1C(N)=O)[C@@H](C)O)[C@@H](C)O)[C@@H](C)O)[C@@H](C)O)[C@@H](C)CC [Compound 123] |
